Results reported in patent publication US20050014751A1, “Use of n-acyl homoserine lactones for the treatment of insulitis” (priority 2001, published 2005).

How the values were obtained:
[1] = tested on: diabetes in NOD mice; experiment: In vivo effects of CSA, anti-TNFα and OdDHL in the diabetes model; details: OdDHL 30 mg/kg, 3 times per week for 4 weeks
Method: Dose regimes of Cyclosporin A, anti-TNFα antibody and OdDHL were compared in the diabetes model. NOD mice were dosed at 25 mg/kg on alternate days for 160 days following the methodology of Mori et al (Diabetologia (1986) 29: 244-247), the content of which is incorporated herein by reference, for the investigation of CSA, and Anti TNF at 12 mg per individual, 0.5 mg three times a week for 8 weeks in accordance with the method of Suk et al (J. Immunology (2001) 166: 4481-4489), the content of which is incorporated herein by reference, was used for TNFα. OdDHL was dosed at 30 mg/kg, 3 times per week for 4 weeks as above.

[2] = tested on: diabetes in NOD mice; experiment: Alleviation of diabetes in NOD mice (incidence of diabetes, Uristix); format: in vivo; details: above 6 mMol glucose/l = diabetes
Method: The ability of the lead compound (OdDHL) to alleviate diabetes in NOD mice was determined by treating the mice 3 times per week for 4 weeks at 30 mg/kg as above. DMSO and OHHL were used as controls.
Diabetes was diagnosed using Uristix and a level of above 6 mMol glucose/I was taken to indicate the presence of diabetes.

[3] = tested on: NOD mice; experiment: Comparative immune toxicity assessment in NOD mice; format: in vivo
Method: The overt immune toxicity of OdDHL was investigated using the dose regime described above in Example 5 for the alleviation of insulitis or diabetes in NOD mice. […] Splenocytes from the mice were taken along the time course of treatment (3 times a week for 4 weeks) and were stained with anti-CD-3 (pan T-cell), anti-CD4 (helper T-cell), anti-CD8 (cytotoxic T-cell) and anti-CD19 (B cell) antibodies for 30 minutes on ice. Cells were washed twice in PBS/BSA and then fixed in 0.5% formaldehyde. Cell phenotypes were analysed on BD FACScan.

[4] = tested on: TNF-alpha production; experiment: TNF-alpha production from LPS-stimulated human PBMC; format: cell-based; details: LPS 5×10^−5 μg/ml, 100,000 PBMC, 24 h, ELISA
Method: Bacterial lipopolysaccharide (LPS) stimulates the production of a variety of cytokines, including TNF-alpha, from human PBMC; these cytokines in turn influence the development of T cells, supporting a T helper 1 conducive milieu. Human PBMC prepared from whole blood by buoyant density centrifugation were resuspended in CTCM. HSL compounds were again tested at similar dilutions as for murine splenocytes in 200 μl of CTCM, containing 5×10^−5 μg/ml LPS Escherichia coli strain 055:B5 (Sigma, Poole, UK) and 100,000 PBMC. Following incubation for 24 h at 37° C. in 5% CO2-air, the cell culture supernatants were collected and tested for TNF-alpha levels by ‘sandwich’ ELISA. Briefly, 96-well Nunc MaxiSorp (Life Technologies, Paisley, UK) plates were coated with 50 μl of a 2 μg/ml solution of mouse anti-human TNF-alpha monoclonal antibody (Pharmingen, UK) in 0.05 M carbonate/bicarbonate buffer, pH 9.6 overnight at 4° C. After washing the plates three times with PBS-Tween, which contained phosphate buffered saline (PBS) with 0.5% (vol/vol) Tween 20 (Sigma, Poole, UK), the plates were blocked with 1% (wt/vol) bovine serum albumin (BSA) (Sigma, Poole, UK) at room temperature for 2 h. […] Following four washes, the bound biotinylated antibody was detected with 50 μl of a 1:1,000 dilution of Streptavidin-peroxidase (Pharmingen, UK). […] The enzyme reaction was stopped with 50 μl of 2.5 M H2SO4 after an incubation of 10 minutes at room temperature and the development was read at 450 nm with a spectrophotometric 96-well plate reader (Dynex). […]
Similar studies were carried out using, as the HSL compounds, N-(12-bromo-3-oxododecanoyl)-L-homoserine lactone (12BrOdDHL) and N-(12-hydroxy-3-oxododecanoyl)-L-homoserine lactone (12hydroxyOdDHL) and the plots for these are shown in FIG. 9. […] The IC50 value for dexamethasone was determined to be 500.
In the cell culture assays the number of cells used (mouse splenocytes and human PBMC) was initially optimised to 100,000 cells per well. The optimal dose of ConA of 1 μg/ml used in the cell proliferation assays was determined from ConA titration curves. […]

CCCCCCCCCC(=O)CC(=O)N[C@H]1CCOC1=O [OdDHL, N-(3-oxododecanoyl)-L-homoserine Lactone]
in vivo action compared to reported data of Mori (CSA) and Suk (anti-TNF) [1]: more effective in vivo action than in vitro
incidence of diabetes ([2]; Week of Experiment 20, 30 mg/kg 3 times per week for 4 weeks): 0/11
incidence of diabetes ([2]; Week of Experiment 30, 30 mg/kg 3 times per week for 4 weeks, week 30 of experiment): 5/20
overt immune toxicity (CD3, CD4, CD8, CD19 splenocyte populations, FACScan, FIG. 12) ([3]; 3 times a week for 4 weeks): lack of overt immune toxicology
body weight gain of treated mice ([3]; dose regime of Example 5, vs non-treated littermates): gained weight identically to their non-treated littermates
inhibition of TNF-α secretion (FIG. 8) [4]: inhibited the secretion
